Data on six molecules can be found in patent publication US11162073B2, “Methods for generating functional hematopoietic stem cells” (The Brigham and Women's Hospital, Inc., priority 2015, dated 2021).

The test system of test [1] is E11.5 AGM cells. Description: E11.5 AGM explant culture with drugs followed by colony formation (CFU) assay. It counts as cell-based, mouse. Particulars: for multipotent GEMM colony formation: E11.5 AGM, 24-48 hr incubation, CFU assay. An excerpt: We first coated each well of the 6-well FlexCell plate using Fibronectin/Matrigel and allowed it to settle on the nylon membrane of each well. Then we seeded two embryo equivalent (e.e.) single-cell suspension of AGM (composed of endothelial, hemogenic endothelial, hematopoietic, vascular smooth muscle (VSMCs), and mesenchymal stromal cells)-derived cells in each FlexCell well, with a coating of Fibronectin/Matrigel allows AGM-derived (sorted or not sorted) cells to adhere to the bottom of the well. We filled each well with an explant culture medium containing Myelocult and growth factors (27, 28). We put these 6-well plates into the FlexCell machine and applied cyclic strain (4-12%) for 6-48 hours using customized pins hooked to the bottom of each well. We inserted the customized rubber gasket in several wells to simulate static control conditions as well. Next we added drugs modulating the stretch-activated ion channel signaling in a few wells undergoing the external cyclic strain. After 6-48 hours of external stimulation of circumferential stretch, we harvested AGM-derived cells from the FlexCell plate and analyzed their capacity to make hematopoietic cells: (I) We performed CFU assays using Methocult media to count multi-potential granulocyte, erythroid, macrophage, megakaryocyte progenitors (GEMM), granulocyte-macrophage progenitors (CFU-GM, CFU-M, CFU-G), and erythroid progenitor (BFU-E) colonies after seven days of seeding AGM derived sorted cells. (II) We analyzed the expression levels of Runx1, c-Myb, Lmo2, Gata2, CD144, and Gata1. (III) We also stained AGM-derived cells with fluorescently labeled conjugated antibodies to measure the expression levels of Flk1, CD144, CD41, c-Kit, & CD45.2. (IV) We injected two e.e. AGM (donor; CD45.2)-derived cells in sub-lethally irradiated CD45.1 (SJL; recipient) mice. We analyzed long-term engraftment and multi-lineage reconstitution potential of donor cells for 16 weeks followed by serial-transplantation to differentiate between HSCs and hemogenic endothelial cells. (V) We also performed limiting dilution assays to analyze the number of HSCs generated per AGM-derived cell following 2D circumferential stretch.
Using a customized bioreactor based on organ-on-a-chip (FIG. 4), we applied 2D circumferential stretch (6% cyclic strain, 24 hr) to a single cell suspension of two e.e. E11.5 AGM cells. In parallel, we also incubated two e.e. E11.5 AGM static cells with Trpv4 agonist (GSK101 (29)).
(§1) In mice, the first heartbeat occurs at E8.25, and HSCs begin to emerge from AGM-derived hemogenic endothelium between E10.5-E12.5 (10, 11). To investigate whether circumferential stretch-activated ion channels are also involved in mammalian HSC emergence, we incubated E11.5 AGM with non-specific SAC channels inhibitor (GdCl3) and pan-Trpv channel inhibitor (Ruthenium Red) in explant culture media and analyzed their hematopoietic CFU capacity, and the expression of endothelial and hematopoietic genes (CD41, CD45.2, c-Kit, Flk1, CD144).
To further investigate the influence of Trpv4 on HSC formation from hemogenic endothelial cells, we incubated E11.5 AGM (28) with Trpv4 agonist (GSK101, 4α-PDD (44)) and Trpv4 antagonist (GSK 205) for 24-48 hr (FIG. 9).

The subject of the next test is zebrafish embryos. Kind of test: zebrafish embryos incubated with stretch-activated ion channel modulators, qRT-PCR and WISH for HSPC surrogate markers. It is filed as in vivo. Particulars: control zebrafish embryos, incubation between 19-42 hpf. An excerpt: An impact of circumferential stretch is communicated by member(s) of the […] superfamily, Trp-superfamily, ENaC/DEG superfamily, and/or Piezo family (36-39). […] However, the direct role of Trpv4 in HSC emergence has not been established. We therefore treated zebrafish embryos with a pan-inhibitor of Trpv channels (Ruthenium RED; (41)), Trpv4 antagonist (GSK 205; (42)), and Trpv4 agonist (GSK101; (29)) between 19-42 hpf, followed by qRT-PCR and WISH for HSPC surrogate markers (c-myb and runx1).

In another test the test system is E11.5 AGM. Kind of test: E11.5 AGM explant culture, expression of endothelial and hematopoietic genes. It counts as cell-based, mouse. Particulars: data not shown. As to the method:
as §1

The test system of test [2] is human umbilical vein endothelial cells (HUVEC). Description: incubation of HUVEC with Trpv4 agonist, intracellular calcium levels. It is filed as cell-based.
The test system of test [3] is E11.5 AGM cells. Kind of test: transplant of treated E11.5 AGM cells into irradiated recipient mice, engraftment and multi-lineage reconstitution. It counts as in vivo, mouse. Particulars: 2 e.e. AGM per recipient. An excerpt: We first coated each well of the 6-well FlexCell plate using Fibronectin/Matrigel and allowed it to settle on the nylon membrane of each well. Then we seeded two embryo equivalent (e.e.) single-cell suspension of AGM (composed of endothelial, hemogenic endothelial, hematopoietic, vascular smooth muscle (VSMCs), and mesenchymal stromal cells)-derived cells in each FlexCell well, with a coating of Fibronectin/Matrigel allows AGM-derived (sorted or not sorted) cells to adhere to the bottom of the well. We filled each well with an explant culture medium containing Myelocult and growth factors (27, 28). […] After 6-48 hours of external stimulation of circumferential stretch, we harvested AGM-derived cells from the FlexCell plate and analyzed their capacity to make hematopoietic cells: (I) We performed CFU assays using Methocult media to count multi-potential granulocyte, erythroid, macrophage, megakaryocyte progenitors (GEMM), granulocyte-macrophage progenitors (CFU-GM, CFU-M, CFU-G), and erythroid progenitor (BFU-E) colonies after seven days of seeding AGM derived sorted cells. (II) We analyzed the expression levels of Runx1, c-Myb, Lmo2, Gata2, CD144, and Gata1. […] We analyzed long-term engraftment and multi-lineage reconstitution potential of donor cells for 16 weeks followed by serial-transplantation to differentiate between HSCs and hemogenic endothelial cells. […]

In another test the test system is sih-silenced embryos. Description: silent heart (sih)-silenced zebrafish embryos incubated with trpv4 agonist, HSPC formation. It counts as in vivo. As to the method:
Silent heart cardiac troponin (sih, tnnt2)-mutant embryos lack heartbeat and blood circulation (43). […] Because heartbeat-mediated pulse pressure on blood vessels stimulates HSC emergence, we studied whether the activation of the Trpv4 ion channels triggers HSC formation in the absence of a heartbeat and blood circulation. We therefore incubated sih-silenced embryos (casper or cd41:eGFP::flk1:mCherry) with trpv4 agonist (GSK101) between 19-42 hpf.

The test system of the next test is cdh5-silenced embryos. Description: cdh5-silenced zebrafish embryos incubated with NOS inhibitor, HSC formation. It counts as in vivo. Particulars: incubation between 19-48 hpf. An excerpt: In zebrafish the heart begins to beat around 23 hpf, the blood circulation begins at approximately 24-26 hpf, and definitive HSCs emerge from hemogenic endothelial cells in the AGM region between 26-48 hpf (11). Blood flow generates shear-stress on the ventral wall of the aortic endothelium and stimulates the endothelial-to-HSC transition by activating the NOS pathway (12, 13). When we performed time-lapse confocal imaging of both the control and the cdh5-silenced cd41:eGFP:flk1:mCherry embryos between 30-48 hpf, we found cdh5-silenced cd41:eGFP^low HSCs emerging from flk1:mCherry^+ endothelial cells despite early circulation arrest (FIG. 1A-B). In addition, we incubated cdh5-silenced embryos in the presence of L-NAME, a pharmacological inhibitor of NOS (12), between 19-48 hpf. […] Thus, HSCs would emerge from hemogenic endothelial cells, despite impaired circulation and NOS inhibition. These striking data led us to investigate shear stress-independent biomechanical and molecular mechanisms responsible for the endothelial transition to HSCs.

“Also recorded” adds a separate entry of the source.

Regarding `N.N.N.N.N.N.N.N.N.N.N.N.N.N.[Cl-].[Cl-].[Cl-].[Cl-].[Cl-].[Cl-].[O-2].[O-2].[Ru+3].[Ru+3].[Ru+4]` [Ruthenium Red], in the test on E11.5 AGM cells [1], the “multipotent GEMM colony formation” value is on record as “attenuates GEMM formation; also recorded: reduced”. In addition, the “expression of HSPC surrogate markers runx1 and c-myb” value in the test on zebrafish embryos is “reduction in runx1 and c-myb expression”. For the same molecule, in the test on E11.5 AGM, the “expression of hematopoietic genes” value was “reduced”.
Take `CC(C)C[C@H](NC(=O)c1cc2ccccc2s1)C(=O)N1CCN(C(=O)[C@H](CO)NS(=O)(=O)c2ccc(Cl)cc2Cl)CC1` [GSK101]: in test [2], the “[Ca+2]i levels” value is “increase in [Ca^+2]i levels”. Moreover, in the test on E11.5 AGM cells [3] (after 8 weeks), the “percentage of engraftment (CD45.2+ peripheral blood chimerism)” value is “Increase; also recorded: increased the percentage of engraftment”. In addition, the multi-lineage reconstitution entry in the test on E11.5 AGM cells [3] (peripheral blood after 8 weeks) is “increased”. The “multipotent GEMM colony formation” value in the test with E11.5 AGM cells [1] is on record as “Increase in GEMM; also recorded: stimulates multipotent progenitor (GEMM) formation; also recorded: enhanced GEMM formation; also recorded: stimulated multipotent GEMM formation”. In addition, the “expression of HSPC surrogate markers runx1 and c-myb” value with zebrafish embryos is “enhances HSPC formation; also recorded: increased the expression of HSPC markers”. The “formation of cd41:eGFP+ HSCs” value in the test with sih-silenced embryos (sih-silenced cd41-eGFP:flk1-mCherry embryos) is “rescues the formation of cd41:eGFP^+ HSCs”. For the same molecule, the “HSPC formation (mRNA expression levels of runx1 and c-myb)” value in the test with sih-silenced embryos (sih-silenced embryos, 19-42 hpf, WISH and qRT-PCR) was “rescues hematopoietic stem progenitor cell (HSPC) formation”.
Take `CCCCCCOC(=O)[C@]1(O)C[C@@H]2O[C@@]1(C)n1c3ccccc3c3c4c(c5c6ccccc6n2c5c31)C(=O)NC4` [KT5720]: in the test with E11.5 AGM cells [1] (E11.5 AGM explant culture, together with Trpv4 agonist GSK101, 24 hr), the “Trpv4 agonist-mediated increase in multipotent GEMM formation” value is “attenuated; also recorded: attenuates stimulating impact of Trpv4 agonist”.
Take `COC(=O)[C@@H](N)CCCNC(=N)N[N+](=O)[O-]` [L-NAME]: the “HSC formation (zf-runx1 and zf-c-Myb expression)” value with cdh5-silenced embryos was “did not abolish HSC formation”.
On to `CCCCCCCCCC(=O)O[C@@H]1[C@@H](C)[C@@]2(O)[C@@H](C=C(CO)C[C@@]3(O)C(=O)C(C)=C[C@@H]23)[C@@H]2C(C)(C)[C@]12OC(=O)CCCCCCCCC` [4α-PDD, 4alpha-phorbol 12,13-didecanoate], for which, in the test on E11.5 AGM cells [1], the “multipotent GEMM colony formation” value was “stimulates multipotent progenitor (GEMM) formation; also recorded: stimulated multipotent GEMM formation”.
As for `[Cl][Gd]([Cl])[Cl]` [GdCl3, Gadolinium Chloride], the “multipotent GEMM colony formation” value in the test with E11.5 AGM cells [1] (listed as GdC13) is given as “attenuates GEMM formation; also recorded: reduced”. The “expression of HSPC surrogate markers runx1 and c-myb” value in the test on zebrafish embryos was “reduced”. For the same molecule, the “expression of hematopoietic genes” value in the test with E11.5 AGM is “reduced”.
